Laboratory results: patent US20040259926A1, “3-Aryloxy and 3-heteroaryloxy substituted benzo[b]thiophenes as therapeutic agents” (priority 2003, published 2004)

These molecules were tested against T1, PI3Kγ (recombinant p101/p110γ protein) (Homo sapiens, UniProt P48736) (assay: PI3Kγ In Vitro Kinase Assay). Settings: purified recombinant p101/p110γ with G protein β1/γ2 subunits; 20 μM ATP, [γ-32P-ATP]; 25 μM PIP2 lipid micelles; 20 minutes at room temperature.
T1 construct: HA; made in house; host or cells: Spodoptera frugiperda (Sf9) cells, baculovirus co-infection
T1 sequence (P48736 whole entry, species assumed): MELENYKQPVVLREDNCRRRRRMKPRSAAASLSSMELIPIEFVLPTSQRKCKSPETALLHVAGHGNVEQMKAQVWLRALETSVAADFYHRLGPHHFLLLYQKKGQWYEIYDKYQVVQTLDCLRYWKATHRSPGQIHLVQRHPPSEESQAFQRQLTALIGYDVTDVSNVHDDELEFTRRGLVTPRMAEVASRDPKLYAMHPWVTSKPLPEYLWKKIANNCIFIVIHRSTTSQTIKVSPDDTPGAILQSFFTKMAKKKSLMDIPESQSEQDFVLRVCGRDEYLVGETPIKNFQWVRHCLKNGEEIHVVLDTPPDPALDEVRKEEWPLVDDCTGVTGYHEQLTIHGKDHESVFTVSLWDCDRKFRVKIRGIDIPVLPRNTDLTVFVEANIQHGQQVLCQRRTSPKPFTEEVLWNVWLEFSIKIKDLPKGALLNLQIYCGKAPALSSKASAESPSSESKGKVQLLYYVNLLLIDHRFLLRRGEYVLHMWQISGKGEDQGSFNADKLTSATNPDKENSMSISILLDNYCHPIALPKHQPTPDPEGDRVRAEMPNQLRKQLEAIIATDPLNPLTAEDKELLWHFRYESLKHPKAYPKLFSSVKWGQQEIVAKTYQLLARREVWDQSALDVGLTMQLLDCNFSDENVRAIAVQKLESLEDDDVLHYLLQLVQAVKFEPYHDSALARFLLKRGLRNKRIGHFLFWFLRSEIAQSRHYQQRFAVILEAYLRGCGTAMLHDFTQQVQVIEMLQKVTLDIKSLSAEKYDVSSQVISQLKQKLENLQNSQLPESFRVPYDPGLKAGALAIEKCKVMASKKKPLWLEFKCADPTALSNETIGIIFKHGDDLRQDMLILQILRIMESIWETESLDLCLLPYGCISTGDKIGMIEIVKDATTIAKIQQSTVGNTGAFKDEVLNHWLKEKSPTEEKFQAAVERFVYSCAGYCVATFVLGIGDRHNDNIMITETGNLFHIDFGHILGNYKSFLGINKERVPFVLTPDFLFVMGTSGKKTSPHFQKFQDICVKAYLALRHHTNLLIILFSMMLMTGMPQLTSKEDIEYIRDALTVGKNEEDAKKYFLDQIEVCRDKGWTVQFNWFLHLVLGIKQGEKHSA
T1 sequence (Q8WYR1 whole entry partner, species assumed): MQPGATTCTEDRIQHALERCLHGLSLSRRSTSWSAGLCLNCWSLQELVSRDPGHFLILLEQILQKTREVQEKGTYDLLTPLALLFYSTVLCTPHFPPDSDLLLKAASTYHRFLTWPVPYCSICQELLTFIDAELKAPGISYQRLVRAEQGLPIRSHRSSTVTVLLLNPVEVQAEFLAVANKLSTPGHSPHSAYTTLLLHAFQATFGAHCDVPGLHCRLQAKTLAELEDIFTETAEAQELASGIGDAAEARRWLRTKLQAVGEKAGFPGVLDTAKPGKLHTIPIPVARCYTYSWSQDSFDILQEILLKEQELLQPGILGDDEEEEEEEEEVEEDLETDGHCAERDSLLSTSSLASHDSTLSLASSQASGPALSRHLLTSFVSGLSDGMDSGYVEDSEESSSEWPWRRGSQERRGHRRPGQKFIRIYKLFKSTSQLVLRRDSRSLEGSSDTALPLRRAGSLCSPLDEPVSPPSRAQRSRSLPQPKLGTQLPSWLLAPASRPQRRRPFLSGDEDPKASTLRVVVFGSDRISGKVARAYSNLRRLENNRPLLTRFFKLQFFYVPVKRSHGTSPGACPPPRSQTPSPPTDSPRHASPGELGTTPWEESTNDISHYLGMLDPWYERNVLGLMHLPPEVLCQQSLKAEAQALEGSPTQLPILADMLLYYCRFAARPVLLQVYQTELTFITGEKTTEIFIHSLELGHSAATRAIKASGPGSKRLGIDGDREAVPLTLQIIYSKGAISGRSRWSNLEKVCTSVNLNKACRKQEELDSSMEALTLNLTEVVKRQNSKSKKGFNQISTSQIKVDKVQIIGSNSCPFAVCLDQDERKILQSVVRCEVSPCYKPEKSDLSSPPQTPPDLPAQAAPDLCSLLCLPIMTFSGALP
Format: biochemical
Protocol: Spodtera frugiperda cells, grown in ESF921 media, were coinfected with baculovirus expressing a glu-tagged […] and baculovirus expressing an HA-tagged p110γ, at a 3:1 ratio of p101 baculovirus to p110γ baculovirus. Sf9 cells were grown to 1×10^7 total cells/mL in 10 L bioreactors and harvested 48-72 hours post infection. Samples of infected cells were then tested for expression of p101/p110γ PI3 kinase by immunoprecipitation and Western Blot analysis methods (see below).
To purify PI3Kγ, 4 volumes of room temperature hypotonic lysis buffer (1 mM MgCl2, 1 mM DTT, 5 mM EGTA, 1 mM Pefabloc, 0.5 μM aprotinin, 5 μM leupeptin, 2 μM pepstatin, 5 μM E64, pH 8) per gram of cell paste, was poured onto frozen cell pellets with stirring, then lysed in a nitrogen “bomb” at 400 psi (599 HC T316, Parr Instrument Co, Moline, Ill.). NaCl was added to 150 mM, and sodium cholate was added to 1% and mixed for another 45 minutes. The lysates were clarified by centrifugation for 25 minutes at 14,000 rpm. The lysates were then loaded over anti-glu-linked Protein-G Sepaharose beads (Covance Research Products, Richmond, Calif.) using 20 mL resin/50 g cell paste. The column was washed with 15 volumes of wash buffer (1 mM DTT, 0.2 mM EGTA, 1 mM Pefabloc, 0.5 μM aprotinin, 5 μM leupeptin, 2 μM pepstatin, 5 μM E64, 150 mM NaCl, 1% sodium cholate, pH 8). PI3Kγ was eluted with 6 column volumes of wash buffer that contain 100 μg/mL of a peptide that competes for binding of the glu tag. The column fractions with the eluted protein (determined by taking OD280 readings) were collected and dialyzed in 0.2 mM EGTA, 1 mM DTT, 1 mM Pefabloc, 5 μM leupeptin, 0.5% sodium cholate, 150 mM NaCl, and 50% glycerol, pH 8. The fractions were stored at −80° C. until further use.
Spodtera frugiperda cells were coinfected with baculovirus expressing a glu-tagged G protein β1 and baculovirus expressing a G protein β2 at a 1:1 ratio of glu-tagged G protein β1 baculovirus to G protein β2 baculovirus. Sf9 cells are grown in 10 L bioreactors and harvested 48-72 hours post infection. Samples of infected cells were tested for G protein β1/β2 expression by Western Blot analysis, as described below. Cell lysates were homogenized and loaded onto a column of glu-tagged beads as in Biological Example 1 and competed off the column with a glu peptide and processed as described in Biological Example 1.
The inhibitory properties of the compounds in Table 1 were assayed in an in vitro PI3K assay. In a 96-well polypropylene plate, each well was spotted with 2 μL of 50 times the desired final concentration of compound in DMSO. Purified recombinant p101/p110γ protein (0.03 μg; ˜2.7 nM) and G protein β1/γ2 subunits (0.09 μg; ˜57.7 nM) for each reaction was combined in the assay buffer (30 mM HEPES, 100 mM NaCl, 1 mM EGTA, and 1 mM DTT). ATP and [γ-^32P-ATP] (0.09 μCi) were added to this mixture so that the final ATP concentration in the reaction was 20 μM. Lipid micelles were formed by sonicating phosphatidylinositol-4,5-diphosphate (PIP2), phosphatidylethanolamine (PE), and Na-cholate in the assay buffer for 10 minutes, adding MgCl2 and incubating on ice for 20 minutes, for final concentrations of 25 μM PIP2, 300 μM PE, 0.02% Na-cholate, and 10 mM MgCl2 in the reaction. The reactions were started by adding equal volumes lipid and enzyme mixture in a total volume of 50 μL, allowed to run for 20 minutes at room temperature, and stopped with 100 μL 75 mM H3PO4. The lipid product was transferred to a glass fiber filter plate and washed with 75 mM H3PO4 several times. The presence of radioactive lipid product (PIP3) was measured by adding Wallac Optiphase mix to each well and counting in a Wallac 1450 Trilux plate reader (PerkinElmer Life Sciences Inc., Boston, Mass. 02118). The IC50 for each compound tested is reported in μM in Table 1: […]

| Compound | IC50 [nM] |
| --- | --- |
| COc1cc2c(Oc3ccc(CC4CCCC4)cc3)c(C(=O)Nc3nn[nH]n3)sc2cc1C [Example B.32, 3-(4-Cyclopentylmethyl-phenoxy)-5-methoxy-6-methyl-benzo[b]thiophene-2-carboxylic acid (2H-tetrazol-5-yl)-amide] | 36 |
| COc1cc2c(Oc3ccc(OC4CCC4)cc3)c(C(=O)Nc3nn[nH]n3)sc2cc1C [Example B.33, 3-(4-Cyclobutoxy-phenoxy)-5-methoxy-6-methyl-benzo[b]thiophene-2-carboxylic acid (2H-tetrazol-5-yl)-amide] | 7 |
| COc1cc2c(Oc3cccc(OC4CCCC4)c3)c(C(=O)Nc3nn[nH]n3)sc2cc1C [Example B.34, 3-(3-Cyclopentyloxy-phenoxy)-5-methoxy-6-methyl-benzo[b]thiophene-2-carboxylic acid (2H-tetrazol-5-yl)-amide] | 110 |
| COc1cc2c(Oc3cncnc3N3CCCCC3)c(C(=O)Nc3nn[nH]n3)sc2cc1C [Example B.37, 5-Methoxy-6-methyl-3-(4-piperidin-1-yl-pyrimidin-5-yloxy)-benzo[b]thiophene-2-carboxylic acid (2H-tetrazol-5-yl)-amide] | 89 |
| COc1cc2c(Oc3ccc(Br)cc3)c(C(=O)Nc3nn[nH]n3)sc2cc1C [Example B.38, 3-(4-Bromo-phenoxy)-5-methoxy-6-methyl-benzo[b]thiophene-2-carboxylic acid (2H-tetrazol-5-yl)-amide] | 16 |
| COc1cc2c(Oc3ccc(F)cc3)c(C(=O)Nc3nn[nH]n3)sc2cc1C [Example B.39, 3-(4-Fluoro-phenoxy)-5-methoxy-6-methyl-benzo[b]thiophene-2-carboxylic acid (2H-tetrazol-5-yl)-amide] | 18 |
| COc1cc2c(Oc3ccc(Cl)cc3F)c(C(=O)Nc3nn[nH]n3)sc2cc1C [Example B.40, 3-(4-Chloro-2-fluoro-phenoxy)-5-methoxy-6-methyl-benzo[b]thiophene-2-carboxylic acid (2H-tetrazol-5-yl)-amide] | 22 |
| COc1cc2c(Oc3ccc(Cl)c(F)c3)c(C(=O)Nc3nn[nH]n3)sc2cc1C [Example B.41, 3-(4-Chloro-3-fluoro-phenoxy)-5-methoxy-6-methyl-benzo[b]thiophene-2-carboxylic acid (2H-tetrazol-5-yl)-amide] | 135 |
| COc1cc2c(Oc3cccc(C(F)(F)F)c3)c(C(=O)Nc3nn[nH]n3)sc2cc1C [Example B.42, 5-Methoxy-6-methyl-3-(3-trifluoromethyl-phenoxy)-benzo[b]thiophene-2-carboxylic acid (2H-tetrazol-5-yl)-amide] | 180 |
| COc1cc2c(Oc3ccc([N+](=O)[O-])cc3)c(C(=O)Nc3nn[nH]n3)sc2cc1C [Example B.43, 5-Methoxy-6-methyl-3-(4-nitro-phenoxy)-benzo[b]thiophene-2-carboxylic acid (2H-tetrazol-5-yl)-amide] | 56 |
| COc1cc2c(Oc3ccc(Cl)c(Cl)c3)c(C(=O)Nc3nn[nH]n3)sc2cc1C [Example B.44, 3-(3,4-Dichloro-phenoxy)-5-methoxy-6-methyl-benzo[b]thiophene-2-carboxylic acid (2H-tetrazol-5-yl)-amide] | 165 |

Continued, values first:

| IC50 [nM] | Compound |
| --- | --- |
| 17 | COc1cc2c(Oc3ccc(OC(F)(F)F)cc3)c(C(=O)Nc3nn[nH]n3)sc2cc1C [Example B.45, 5-Methoxy-6-methyl-3-(4-trifluoromethoxy-phenoxy)-benzo[b]thiophene-2-carboxylic acid (2H-tetrazol-5-yl)-amide] |
| 120 | COc1cc2c(Oc3cccnc3)c(C(=O)Nc3nn[nH]n3)sc2cc1C [Example B.46, 5-Methoxy-6-methyl-3-(pyridin-3-yloxy)-benzo[b]thiophene-2-carboxylic acid (2H-tetrazol-5-yl)-amide] |
| 58 | COc1cc2c(Oc3ccc(S(C)(=O)=O)cc3)c(C(=O)Nc3nn[nH]n3)sc2cc1C [Example B.47, 3-(4-Methanesulfonyl-phenoxy)-5-methoxy-6-methyl-benzo[b]thiophene-2-carboxylic acid (2H-tetrazol-5-yl)-amide] |
| 71 | COc1cc2c(Oc3ccc(C4CCC(C)C4)cc3)c(C(=O)Nc3nn[nH]n3)sc2cc1C (stereo not drawn) [Example B.49, 5-Methoxy-6-methyl-3-[4-(3-methyl-cyclopentyl)-phenoxy]-benzo[b]thiophene-2-carboxylic acid (2H-tetrazol-5-yl)-amide] |
| 51 | COc1cc2c(Oc3ccc(OC4CCC(C)C4)cc3)c(C(=O)Nc3nn[nH]n3)sc2cc1C (stereo not drawn) [Example B.50, 5-Methoxy-6-methyl-3-[4-(3-methyl-cyclopentyloxy)-phenoxy]-benzo[b]thiophene-2-carboxylic acid (2H-tetrazol-5-yl)-amide] |
| 61 | COc1cc2c(Oc3ccc(Cl)cc3)c(C(=O)Nc3nn[nH]n3)sc2cc1C [Example B.51, 3-(4-Chloro-phenoxy)-5-Methoxy-6-methyl-benzo[b]thiophene-2-carboxylic acid (2H-tetrazol-5-yl)-amide] |
| 1310 | CCCCC1CCCC(c2ccc(Oc3c(C(=O)Nc4nn[nH]n4)sc4cc(C)c(OC)cc34)cc2)C1 (stereo not drawn) [Example B.52, 3-[4-(3-Butyl-cyclohexyl)-phenoxy]-5-methoxy-6-methyl-benzo[b]thiophene-2-carboxylic acid (2H-tetrazol-5-yl)-amide] |
| 102 | COc1cc2c(Oc3ccc(C4CCC(C)(C)CC4)cc3)c(C(=O)Nc3nn[nH]n3)sc2cc1C [Example B.55, 3-[4-(4,4-Dimethyl-cyclohexyl)-phenoxy]-5-methoxy-6-methyl-benzo[b]thiophene-2-carboxylic acid (2H-tetrazol-5yl)-amide] |
| 40 | COc1cc2c(Oc3ccc(C4CCCCCC4)cc3)c(C(=O)Nc3nn[nH]n3)sc2cc1C [Example B.57, 3-(4-cycloheptyl-phenoxy)-5-methoxy-6-methyl-benzo[b]thiophene-2-carboxylic acid (2H-tetrazol-5-yl)amide] |
| 35 | COc1cc2c(Oc3ccc(C4CCCC4)cc3)c(C(=O)Nc3nn[nH]n3)sc2cc1C [Example B.58, 3-(4-cyclopentyl-phenoxy)-5-methoxy-6-methyl-benzo[b]thiophene-2-carboxylic acid (2H-tetrazol-5-yl)amide] |
| 25 | COCC1(c2ccc(Oc3c(C(=O)Nc4nn[nH]n4)sc4cc(C)c(OC)cc34)cc2)CCCC1 [Example B.59, 5-Methoxy-3-[4-(1-methoxymethyl-cyclopentyl)-phenoxy]-6-methyl-benzo[b]thiophene-2-carboxylic acid (2H-tetrazol-5-yl)-amide] |
| 22 | COc1cc2c(Oc3ccc(C4CCC(=O)CC4)cc3)c(C(=O)Nc3nn[nH]n3)sc2cc1C [Example B.60, 5-Methoxy-6-methyl-3-[4-(4-oxo-cyclohexyl)-phenoxy]-benzo[b]thiophene-2-carboxylic acid (2H-tetrazol-5-yl)-amide] |
| 9 | COc1cc2c(Oc3ccc(C4(C(N)=O)CCCC4)cc3)c(C(=O)Nc3nn[nH]n3)sc2cc1C [Example B.64, 3-[4-(1-carbamoyl-cyclopentyl)-phenoxy]-5-methoxy-6-methyl-benzo[b]thiophene-2-carboxylic acid (2H-tetrazol-5-yl)-amide] |
